Test results: PMC12586182 (Frontiers in Oncology, 2025)
pIC50: −log10 of the molar value.

Columns and labels:
Experiment in all cases: Cell viability assay (ATPlite)
Format in all cases: cell-based
SW837 = details: Homo sapiens; SW837 cell line, 72 hours incubation
Procedure: (§1) Intracellular ATP content was used as an indirect readout of cell number using the ATPlite 1Step bioluminescence assay (Revvity, Groningen, the Netherlands). Cells were seeded in 384-well plates at an optimized density to ensure unrestricted growth and maximal signal at the end of the experiment. After 24 hours of incubation, the starting cell number was determined by adding ATPlite to each well of a control plate and recording luminescence on an Envision multimode reader (Revvity, Waltham, MA, USA) ([4]). Compounds were diluted in DMSO in √10-fold steps from 10 mmol/L stocks to obtain 9-point dilution series. After further 31.6-fold dilution in 20 mmol/L HEPES (pH 7.4), the dilution series were added in duplicate to the cells in the 384-well plates to determine the effect of the compounds on cell viability. Vehicle-treated controls were included to determine maximal cell proliferation. The final DMSO concentration was 0.4% (v/v) in all wells. After incubation for an additional 72 hours, the ATP content was measured in each well using ATPlite. The luminescent signal in inhibitor-treated wells was normalized to vehicle-treated control wells to determine the percentage viability at each concentration. Cell doublings were determined by relating the cell number of vehicle-treated controls to the starting cell number for each cell line. The viability assay of a cell line was repeated when the cell doubling deviated > 2-fold from the historic doubling as determined by multiple independent experiments. The quality of the complete assay was determined by a parallel test with doxorubicin on two cell lines. IC50 values were calculated by fitting a four-parameter logistic model to the percentage viability values using IDBS XLfit5 (IDBS, Guildford, United Kingdom). All curves were visually inspected and submitted to an F-test as implemented in IDBS XLfit5. Curves with an F-value above 1.5 were invalidated and IC50 values were maximized at the highest concentration.

MM1.R = details: Homo sapiens, MM.1R; MM1.R cell line, 72 hours incubation
Procedure: as §1

CCRF-CEM = details: Homo sapiens; CCRF-CEM cell line, 72 hours incubation
Procedure: as §1

G-361 = details: Homo sapiens; G-361 cell line, 72 hours incubation
Procedure: as §1

SR = details: Homo sapiens; SR cell line, 72 hours incubation
Procedure: as §1

SK-OV-3 = details: Homo sapiens; SK-OV-3 cell line, 72 hours incubation
Procedure: as §1

U-87MG ATCC = details: Homo sapiens; U-87MG ATCC cell line, 72 hours incubation
Procedure: as §1

CTV-1 = details: Homo sapiens; CTV-1 cell line, 72 hours incubation
Procedure: as §1

SW620 = details: Homo sapiens, SW-620; SW620 cell line, 72 hours incubation
Procedure: as §1

JAR = details: Homo sapiens; JAR cell line, 72 hours incubation
Procedure: as §1

NCI-H716 = details: Homo sapiens; NCI-H716 cell line, 72 hours incubation
Procedure: as §1

KMS-11 = details: Homo sapiens; KMS-11 cell line, 72 hours incubation
Procedure: as §1

SK-N-SH = details: Homo sapiens; SK-N-SH cell line, 72 hours incubation
Procedure: as §1

MDA-MB-453 = details: Homo sapiens; MDA-MB-453 cell line, 72 hours incubation
Procedure: as §1

NCI-H460 = details: Homo sapiens; NCI-H460 cell line, 72 hours incubation
Procedure: as §1

A-704 = details: Homo sapiens, A704; A-704 cell line, 72 hours incubation
Procedure: as §1

COLO 205 = details: Homo sapiens; COLO 205 cell line, 72 hours incubation
Procedure: as §1

SW626 = details: Homo sapiens; SW626 cell line, 72 hours incubation
Procedure: as §1

RS4;11 = details: Homo sapiens; RS4;11 cell line, 72 hours incubation
Procedure: as §1

SW480 = details: Homo sapiens; SW480 cell line, 72 hours incubation
Procedure: as §1

A-549 = details: Homo sapiens, A549; A-549 cell line, 72 hours incubation
Procedure: as §1

MDA-MB-231 = details: Homo sapiens; MDA-MB-231 cell line, 72 hours incubation
Procedure: as §1

LC-2/ad = details: Homo sapiens; LC-2/ad cell line, 72 hours incubation
Procedure: as §1

HEC-1 = details: Homo sapiens; HEC-1 cell line, 72 hours incubation
Procedure: as §1

DoHH2 = details: Homo sapiens, DOHH-2; DoHH2 cell line, 72 hours incubation
Procedure: as §1

K-562 = details: Homo sapiens, K562; K-562 cell line, 72 hours incubation
Procedure: as §1

SU-DHL-1 = details: Homo sapiens; SU-DHL-1 cell line, 72 hours incubation
Procedure: as §1

NOMO-1 = details: Homo sapiens; NOMO-1 cell line, 72 hours incubation
Procedure: as §1

AsPC-1 = details: Homo sapiens, ASPC1; AsPC-1 cell line, 72 hours incubation
Procedure: as §1

TOV-112D = details: Homo sapiens, TOV112D; TOV-112D cell line, 72 hours incubation
Procedure: as §1

CCRF-HSB-2 = details: Homo sapiens; CCRF-HSB-2 cell line, 72 hours incubation
Procedure: as §1

Structure (SMILES): O=C(c1ccc(Oc2ccccc2)cc1Cl)c1c[nH]c2ncnc(N[C@@H]3CC[C@@H](CO)OC3)c12 [nemtabrutinib]
- pIC50 (SW837): 5.42
- pIC50 (MM1.R): 5.08
- pIC50 (CCRF-CEM): 4.86
- pIC50 (G-361): 5.97
- pIC50 (SR): 5.04
- pIC50 (SK-OV-3): 5.31
- pIC50 (U-87MG ATCC): 4.92
- pIC50 (CTV-1): 6.15
- pIC50 (SW620): 5.61
- pIC50 (JAR): 4.74
- pIC50 (NCI-H716): 5.83
- pIC50 (KMS-11): 5.33
- pIC50 (SK-N-SH): 5.46
- pIC50 (MDA-MB-453): 5.27
- pIC50 (NCI-H460): 5.24
- pIC50 (A-704): 4.79
- pIC50 (COLO 205): 6.18
- pIC50 (SW626): 5.51
- pIC50 (RS4;11): 5.11
- pIC50 (SW480): 5.48
- pIC50 (A-549): 5.14
- pIC50 (MDA-MB-231): 5.59
- pIC50 (LC-2/ad): 5.90
- pIC50 (HEC-1): 5.34
- pIC50 (DoHH2): 6.31
- pIC50 (K-562): 5.59
- pIC50 (SU-DHL-1): 5.21
- pIC50 (NOMO-1): 5.32
- pIC50 (AsPC-1): 5.42
- pIC50 (TOV-112D): 5.56
- pIC50 (CCRF-HSB-2): 6.43
